Data on four compounds can be found in US20240122893A1 (priority 2021, published 2024).

The structures appear in SMILES notation. Structures can show the parent of a compound that is named as a salt. Where two headings read alike, the source gives them in different places.

Series [1] deals with SARS-CoV-2. The conditions noted are these: treatment of cells with NRF2 agonists; cited from earlier work.
The test system of series [2] is HCoV-OC43. Put plainly: microbe, parasite or virus in culture. The settings on record: Betacoronavirus 1, OC43, MRC5, read-out: IC50, median inhibitory concentration.
Series [3] relates to SARS-CoV-2. Put plainly: organism not typed. The settings on record: Caco-2, read-out: IC50, reduction of viral RNA.
Experimental: vRNA determination: Zymo Quick-RNA Viral 96 Kit (Zymo Research) was used to isolate RNA from cell supematants according to the manufacturer's protocol. cDNA synthesis was performed using qScript cDNA Supermix containing randomhexamers and oligo-dT primers following the manufacture's protocol (Quanta Biosciences). Real-time PCR was performed in technical triplicate for each sample using TaqMan Fast Advanced Master Mix (Applied Biosystems) on a StepOne Plus Real Time PCR machine (Applied Biosystems). […] The cycling parameters were as follows: (i) 2 min at 50° C.; (ii) 2 min at 95° C.; and (iii) 45 cycles at 95° C. for 3s and 55° C. for 30 s. Molecular standard curves were generated using serial dilutions of a plasmid containing the complete SARS-CoV-2N gene (Integrated DNA Technologies, Catalog #10006625).
Viral RNA determination. Zymo Quick-RNA Viral 96 Kit (Zymo Research) was used to isolate RNA from cell supematants according to the manufacturer's protocol. cDNA synthesis was performed using qScript cDNA Supermix containing random hexamers and oligo-dT primers following the manufacture's protocol (Quanta Biosciences). Real-time quantitative reverse transcription
PCR (RT-qPCR) was performed in technical triplicate for each sample using TaqMan Fast Advanced Master Mix (Applied Biosystems) on a StepOne Plus Real Time PCR machine (Applied Biosystems). […]
The conditions of series [4]: cited from earlier work.
A further series deals with MRC-5 cells. The conditions noted are these: human.
The subject of series [5] is HCoV-OC43. Kind of series: microbe, parasite or virus in culture. In kind it is cell-based, Human coronavirus OC43.
Series [6] concerns SARS-CoV-2/USA/WI1/2020. The settings on record: for protein concentration in bronchoalveolar lavage (BAL), measure of lung injury: 6 days post-infection; for SARS-CoV-2 spike protein distribution in the lungs: vs infected untreated animals.
For series [7], the system named is SARS-CoV-2. Kind of series: CPE inhibition assay, SARS-CoV-2 strains in Vero C1008 cells. In kind it is cell-based.
Series [8] has as its system SARS-CoV-2/USA/WI1/2020.
Experimental: Flow cytometry: Lungs were minced and incubated at 37° C. in an enzyme cocktail of RPMI containing 2.4 mg/ml collagenase I and 20 μg/ml DNase (Invitrogen), then mashed through a 70-μm nylon cell strainer (BD Falcon). […] For analysis immediately ex vivo, cells were washed once in PBS and immediately stained for viability with Biolegend Live/Dead Zombie NIR Fixable Viability Dye and Fc Block for 10 min at room temperature. Cell surface staining was performed in 100 uL of 20% BD Horizon™ Brilliant Stain Buffer+ PBS with surface stain antibody cocktail for 20 min at room temperature. Cells were fixed and permeabilized with eBioscience™ FoxP3/Transcription Factor Staining kit 1× Fixation/Permeabilization reagent overnight at 4° C. Cells were washed with 1× Permeabilization/Wash buffer. Intracellular staining (ICS) was performed in 100 uL 1× Permeabilization/Wash buffer with ICS antibody cocktail for 45 min at room temperature. Cells were washed once with Permeabilization/Wash buffer then resuspended in Permeabilization/Wash buffer for acquisition by flow. Samples were run on a 3 laser Cytek Aurora spectral flow cytometer. FCS files were analyzed using Flowjo v10 (10.6.2.) software.
Flow cytometry. Lungs were minced and incubated at 37° C. in an enzyme cocktail of RPMI containing 2.4 mg/mi collagenase I and 20 μg/ml DNase (Invitrogen), then mashed through a 70-μm nylon cell strainer (BD Falcon). […] For analysis immediately ex vivo, cells were washed once in PBS and immediately stained for viability with Biolegend Live/Dead Zombie NIR Fixable Viability Dye and Fc Block for 10 min at room temperature. Cell surface staining was performed in 100 μL of 20% BD Horizon™ Brilliant Stain Buffer+ PBS with surface stain antibody cocktail for 20 min at room temperature. Cells were fixed and permeabilized with eBioscience™ FoxP3/Transcription Factor Staining kit 1× Fixation/Permeabilization reagent overnight at 4° C. Cells were washed with 1× Permeabilization/Wash buffer. Intracellular staining (ICS) was performed in 100 μL 1× Permeabilization/Wash buffer with ICS antibody cocktail for 45 min at room temperature. Cells were washed once with Permeabilization/Wash buffer then resuspended in Permeabilization/Wash buffer for acquisition by flow. […] For the myeloid flow cytometry functional staining, the cells were incubated with protein transport inhibitors for 4 h. Samples were run on a 3 laser Cytek Aurora spectral flow cytometer or a FACSAria II spectral flow cytometer (BD). FCS files were analyzed using Flowjo v10.6.2 software (BD). […] High-dimensional unbiased analysis of cell phenotypes was performed using Flowjo plugins DownSample v3 and UMAP.
Where [9] appears, read: 30 mg/kg daily oral gavage, vs untreated infected controls.
The mark [10] stands for this setting: after PMA/ionomycin stimulation.

For `COC(=O)/C=C/C(=O)OC` [dimethyl fumarate], in the series with SARS-CoV-2 [1], the “replication of SARS-CoV-2 in vitro” value was “inhibited replication”.
With `C[S+]([O-])CCCCN=C=S` (centres unmarked) [SFN, sulforaphane], the IC50 in the series with HCoV-OC43 [2] amounted to 18 µM; in the series with SARS-CoV-2 [3], 2.4 µM; in the series on HCoV-OC43 [5] (Betacoronavirus 1, OC43, Vero C1008, 24 h, Vero C1008, established infection, drug added 24 h after virus, read-out: IC50, median inhibitory concentration), 18 µM; with HCoV-OC43 [5] (Betacoronavirus 1, OC43, Vero C1008, Vero C1008, drug 24 h before virus, drug washed out and then virus added, read-out: IC50, median inhibitory concentration), 21 µM; in the series on HCoV-OC43 [5] (Betacoronavirus 1, OC43, Vero C1008, read-out: IC50, median inhibitory concentration, Vero C1008, drug added 1-2 h before virus), 10 µM; in the series with SARS-CoV-2 [7] (614G+ clinical strain USA/DCHP-7/2020 (DC)), 29 µM. The IC50 is 28 µM in the series on SARS-CoV-2 [7] (614G+ clinical strain USA/MDHP-20/2020 (MD)); 51 µM in the series on SARS-CoV-2 [7] (Severe acute respiratory syndrome coronavirus 2, Vero C1008, 614G+ clinical strain USA/DCHP-7/2020 (DC)); 48 µM in the series on SARS-CoV-2 [7] (Severe acute respiratory syndrome coronavirus 2, Vero C1008, 614G+ clinical strain USA/MDHP-20/2020 (MD)); 13 µM in the series with SARS-CoV-2 [7] (Severe acute respiratory syndrome coronavirus 2, Vero C1008, 24 h, SARS-CoV-2-Wuhan-Hu-1, established infection, drug added 24 h after virus, read-out: IC50, median inhibitory concentration); 15 to 17 µM in the series on SARS-CoV-2 [7] (Severe acute respiratory syndrome coronavirus 2, Vero C1008, both reference strains, Wuhan-Hu-1 and USA-WA1/2020 (Example 1)); 12 µM in the series on SARS-CoV-2 [7] (Severe acute respiratory syndrome coronavirus 2, Vero C1008, read-out: IC50, median inhibitory concentration, SARS-CoV-2-Wuhan-Hu-1, Vero C1008, drug 1-2 h before virus). The compound further showed an IC50 in the series with SARS-CoV-2 [7] (Severe acute respiratory syndrome coronavirus 2, Vero C1008, reference strain USA-WA1/2020, drug 1 h before virus (Example 2)) of 31 µM. Further, in the series on Vero C1008 cells (African green monkey, human), the “TD50, median cytotoxic dose, range over assays” value fell in the range of 73 to 89 µM. The tolerability result in series [4] (SFN-rich broccoli sprouts corresponding to 50 to 400 μmol SFN daily) was “well tolerated without clinically significant adverse effects”. Besides, in series [4] (in vivo), the elimination from plasma result is “rapidly eliminated from plasma”. Moreover, the “TD50, median cytotoxic dose” value with MRC-5 cells is 83 µM. Besides, in the series with SARS-CoV-2/USA/WI1/2020 [6] (30 mg/kg daily oral gavage from one day before inoculation, day 6 post inoculation), the “bodyweight loss, less than infected untreated controls” value came out at 7.5%. In addition, the “protein concentration in bronchoalveolar lavage (BAL), measure of lung injury” value with SARS-CoV-2/USA/WI1/2020 [6] (setting [9]) was “significantly lower”; in the series on SARS-CoV-2/USA/WI1/2020 [6] (30 mg/kg daily oral gavage, vs untreated infected controls, listed as sulforaphane) it was “lower”. In addition, the “reduction in lung viral load, total SARS-CoV-2 N protein copies, not normalized to Pol2Ra” value in the series with SARS-CoV-2/USA/WI1/2020 [6] (30 mg/kg daily oral gavage, P=0.1308) is listed as 1.46 log. In the series on SARS-CoV-2/USA/WI1/2020 [6] (30 mg/kg daily oral gavage, day 6 post inoculation), the “weight loss compared to controls” value is listed as “lost significantly less weight”. In the series on SARS-CoV-2/USA/WI1/2020 [6] (30 mg/kg daily oral gavage, vs infected untreated controls), the “reduction in lung viral load, SARS-CoV-2 N protein copies normalized to Pol2Ra” value is listed as 1.5 log. Also, the “viral burden in BAL / alveolar fluid (qPCR)” value in the series with SARS-CoV-2/USA/WI1/2020 [6] (setting [9]) is “significantly lower”. Further, the “histopathology score of lung inflammation” value in the series with SARS-CoV-2/USA/WI1/2020 [6] (30 mg/kg daily, untreated controls 6/16) is given as 1/16. Besides, in the series with SARS-CoV-2/USA/WI1/2020 [6] (daily oral gavage from one day before inoculation), the “lung viral load, treated vs controls (Example 1)” value is “no statistically significant differences”. For the same compound, the “reduction of viral replication in the lungs” value in the series with SARS-CoV-2/USA/WI1/2020 [6] (prophylactic SFN treatment) was 1.5 orders of magnitude. For the same compound, the “SARS-CoV-2 spike protein distribution in the lungs” value is “focal distribution” with SARS-CoV-2/USA/WI1/2020 [6] and “smaller area” in the series with SARS-CoV-2/USA/WI1/2020 [6] (listed as sulforaphane). The “pulmonary pathology (H&E lung sections)” value in the series with SARS-CoV-2/USA/WI1/2020 [6] (vs infected untreated mice) is “lower degree of pulmonary pathology”. Besides, in the series with SARS-CoV-2/USA/WI1/2020 [8] (Example 1), the “B cells in the spleen and Ly6G+ neutrophils in the lung” value is reported as “significantly higher expansion”. The “CCR2 expression on alveolar macrophages” value with SARS-CoV-2/USA/WI1/2020 [8] (Example 1) is given as “reduced”. Also, in the series on SARS-CoV-2/USA/WI1/2020 [8] (Example 1), the “CD86 on lung-resident macrophages” value is “increased”. For the same compound, the “IL-10 and TGFβ produced by macrophages” value with SARS-CoV-2/USA/WI1/2020 [8] (Example 1) was “increased”. Besides, the “Ki67 and MHCII on CD8 T cells immediately ex vivo” value with SARS-CoV-2/USA/WI1/2020 [8] (Example 1) is on record as “upregulation”. Further, in the series with SARS-CoV-2/USA/WI1/2020 [8] (Example 1), the “PD-L1 expression on macrophages” value is “lower levels”. Further, the “frequency of B cells, cytotoxic NK cells and CD8 T cells” value in the series on SARS-CoV-2/USA/WI1/2020 [8] (Example 1) was “increased frequency”. Moreover, the “expression of activation markers CD80, CD86, PD-L1, MHC-II on lung alveolar and interstitial macrophages” value with SARS-CoV-2/USA/WI1/2020 [8] (Example 2) is “lower expression”. Also, the “PD1, MHC-II and Ki-67 on lung CD8+ and CD4+ T cells, directly ex vivo” value in the series with SARS-CoV-2/USA/WI1/2020 [8] (Example 2, P<0.05) is recorded as “significantly decreased”. For the same compound, the “frequencies of lung alveolar and interstitial macrophages producing IL-10, IL-1β, TNF-α, TGF-β” value in the series with SARS-CoV-2/USA/WI1/2020 [8] (Example 2, P<0.05) is “significantly lower frequencies”. In addition, in the series on SARS-CoV-2/USA/WI1/2020 [8] (P<0.0001), the “infection-induced increase of IL-1β in alveolar macrophages” value is “abrogated”. Besides, in the series with SARS-CoV-2/USA/WI1/2020 [8] (P=0.01), the “CPT1a+VDAC+ myeloid cells in lung” value was “significantly decreased”. For the same compound, the “percentage of monocytes and CD11c+ dendritic cells out of total CD45+ immune cells in the lungs” value with SARS-CoV-2/USA/WI1/2020 [8] (P=0.01) is on record as “significantly decreased”. The “IFN-γ and IL-10 from lung CD4+ T cells” value in the series on SARS-CoV-2/USA/WI1/2020 [8] (setting [10]) is on record as “lower levels”. In the series on SARS-CoV-2/USA/WI1/2020 [8] (setting [10]), the “frequency of IL-4 and IL-17 in CD4+ T cells” value is reported as “not significantly altered”. Moreover, in the series on SARS-CoV-2/USA/WI1/2020 [8] (mouse, in vivo), the “TNF-α in alveolar macrophages and IFN-γ in T cells” value is on record as “reduction”. The “recruitment of myeloid cells (monocytes, dendritic cells) into the lungs” value in the series with SARS-CoV-2/USA/WI1/2020 [8] (vs infected untreated mice) is “significantly reduced”.
As to `C=C(CC(=O)OCCCCCCCC)C(=O)O` [4-octyl-itaconate], the “replication of SARS-CoV-2 in vitro” value with SARS-CoV-2 [1] is reported as “inhibited replication”.
In the case of `CCC(CC)COC(=O)[C@H](C)N[P@](=O)(OC[C@H]1O[C@@](C#N)(c2ccc3c(N)ncnn23)[C@H](O)[C@@H]1O)Oc1ccccc1` [RDV, remdesivir, reference compound], the “TD50, median cytotoxic dose” value in the series with Vero C1008 cells (Vero C1008, drug added 1-2 h before virus (HCoV-OC43 assay)) stood at 142 µM. Further, the IC50 with HCoV-OC43 [5] (Betacoronavirus 1, OC43, Vero C1008, drug added 1-2 h before virus, read-out: IC50, median inhibitory concentration) is 22 µM; in the series on SARS-CoV-2 [7] (Severe acute respiratory syndrome coronavirus 2, Vero C1008, SARS-CoV-2, FIG. 2E, Vero C1008, drug 1 h before virus, read-out: IC50) it was 4 µM; with SARS-CoV-2 [7] (Severe acute respiratory syndrome coronavirus 2, Vero C1008, four strains of SARS-CoV-2 (Example 1), read-out: IC50) it was 4 to 9 µM.
